One compound from ChEMBL document CHEMBL1140940, “Pyrido[2,3-d]pyrimidin-5-ones: a novel class of antiinflammatory macrophage colony-stimulating factor-1 receptor inhibitors” (J Med Chem, 2009) can be followed below.

Activity calls are given as the source filed them. The calls are words filed in the database; no cut-off is given here.

One may read the half-life as how long it takes for the measured level to halve. For orientation: IC50 means the concentration that inhibits the measured activity by half. As a reminder, the inhibition in vivo is the change of the read-out against control, counted positive when it falls. Usually bioavailability stands for dose-corrected exposure relative to a reference, in per cent.

Series [1] is described as follows: Half life in Sprague-Dawley rat at 10 mg/kg, po. The series is classed as ADME, organism-based. Also on record: dose 10 mg/kg, route oral. To be noted: in vivo.
Series [2] has as its target Proto-oncogene tyrosine-protein kinase Src (Homo sapiens, UniProt P12931). Put plainly: Inhibition of Src by fluorescence polarization competition immunoassay.
A short description of series [3]: Plasma concentration in Freund's complete adjuvant-induced Lewis rat arthritis model at 1 mg/kg, po twice daily administered on day 8 post adjuvant challenge measured 7 days after last dose. The series is classed as ADME, organism-based. On the set-up: dose 1 mg/kg, route oral.
Series [4] is described as follows: Half life in mouse at 2 mg/kg, iv. To be noted: in vivo. The series is classed as ADME, organism-based. On the set-up: dose 2 mg/kg, route intravenous.
A short description of series [5]: Metabolic stability in monkey liver microsomes after 10 mins. The series is classed as ADME, Macaca mulatta, Microsome. To be noted: rhesus monkey, read-out: Stability.
Series [6] has as its system Rattus norvegicus. Briefly: Antiinflammatory effect in Freund's complete adjuvant-induced Lewis rat arthritis model assessed as prevention of bone erosion at 3 mg/kg, po twice daily administered on day 8 post adjuvant challenge measured on day 21 post adjuvant challenge relative to control. The series is classed as functional, organism-based. Also on record: dose 3 mg/kg.

The nature of series [7]: Volume of distribution at steady state in monkey at 2 mg/kg, iv. The series is classed as ADME, organism-based, Macaca mulatta. On the set-up: dose 2 mg/kg, route intravenous. To be noted: rhesus monkey, in vivo, read-out: Vdss.
In series [8] the test system is Rattus norvegicus. Put plainly: Inhibition of ankle swelling in Freund's complete adjuvant-induced Lewis rat arthritis model at […], po twice daily administered on day 8 post adjuvant challenge measured on day 21 post adjuvant challenge relative to control. The series is classed as functional. To be noted: dose 0.33 mg/kg.
In series [9] the test system is Rattus norvegicus. Briefly: Antiinflammatory effect in Freund's complete adjuvant-induced Lewis rat arthritis model assessed as prevention of bone lesion development at tibial tarsal joint at 1 mg/kg, po twice daily administered on day 8 post adjuvant challenge measured on day 21 post adjuvant challenge by microradiography. The series is classed as functional, organism-based. On the set-up: dose 1 mg/kg.

Series [10] can be described thus: Oral bioavailability in monkey at 10 mg/kg. The series is classed as ADME, organism-based, Macaca mulatta. To be noted: rhesus monkey, in vivo.
Series [11] is described as follows: Metabolic stability in dog liver microsomes after 10 mins. To be noted: read-out: Stability. The series is classed as ADME, Canis lupus familiaris, Microsome. For orientation: Microsomes from liver hold many membrane-bound enzymes, among them those of drug oxidation.
Series [12] addresses Mast/stem cell growth factor receptor Kit (Homo sapiens, UniProt P10721). Put plainly: Inhibition of KIT by fluorescence polarization competition immunoassay. In general terms: In fluorescence polarisation assays a small probe gives low polarisation when free and higher when bound to something large.
The test system of series [13] is Rattus norvegicus. Briefly: Reversal of ankle swelling in streptococcal cell wall-induced Lewis rat chronic arthritis model at 10 mg/kg, po twice daily administered on day 19 post streptococcal cell wall challenge. The series is classed as functional, organism-based. Also on record: dose 10 mg/kg.
In series [14] the test system is Rattus norvegicus. Briefly: Toxicity in rat assessed as tolerability at 40 mg/kg. The series is classed as organism-based. Also on record: dose 40 mg/kg. To be noted: in vivo.
In series [15] the test system is Mus musculus. Briefly: Reduction of CSF1-induced increase in c-fos mRNA expression in B6C3F1 mouse at 3 mg/kg, po administered 6 hrs before CSF1 challenge measured 15 mins post CSF1 challenge relative to control. The series is classed as functional. On the set-up: scale not given: the % may be the effect or the level left.
The target of series [16] is T1, Tyrosine-protein kinase receptor UFO (Homo sapiens, UniProt P30530).
T1 sequence (P30530 whole entry): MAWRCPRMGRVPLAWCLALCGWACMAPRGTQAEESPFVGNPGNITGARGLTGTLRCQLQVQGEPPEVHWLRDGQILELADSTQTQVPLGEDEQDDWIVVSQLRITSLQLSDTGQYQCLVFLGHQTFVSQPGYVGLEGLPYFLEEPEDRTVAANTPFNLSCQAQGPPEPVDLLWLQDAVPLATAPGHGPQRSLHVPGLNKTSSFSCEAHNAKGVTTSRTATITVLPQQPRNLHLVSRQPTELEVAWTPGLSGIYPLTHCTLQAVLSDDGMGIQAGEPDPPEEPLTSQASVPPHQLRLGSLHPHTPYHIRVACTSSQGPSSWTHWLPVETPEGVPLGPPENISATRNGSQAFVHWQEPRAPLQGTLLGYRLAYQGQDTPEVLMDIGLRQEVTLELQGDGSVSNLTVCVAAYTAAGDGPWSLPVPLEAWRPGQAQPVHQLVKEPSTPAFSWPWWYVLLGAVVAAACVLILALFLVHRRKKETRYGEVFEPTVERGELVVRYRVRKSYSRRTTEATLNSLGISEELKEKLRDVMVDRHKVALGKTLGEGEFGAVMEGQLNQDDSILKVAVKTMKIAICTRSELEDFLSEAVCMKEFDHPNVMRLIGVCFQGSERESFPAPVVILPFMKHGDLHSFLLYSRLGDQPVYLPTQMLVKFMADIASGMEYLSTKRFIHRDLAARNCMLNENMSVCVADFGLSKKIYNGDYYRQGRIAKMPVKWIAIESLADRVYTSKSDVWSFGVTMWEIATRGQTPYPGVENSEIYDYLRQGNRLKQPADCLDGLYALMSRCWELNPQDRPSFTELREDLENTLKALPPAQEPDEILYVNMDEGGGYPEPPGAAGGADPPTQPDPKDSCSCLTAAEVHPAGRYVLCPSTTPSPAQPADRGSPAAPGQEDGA
Briefly: Inhibition of Axl by fluorescence polarization competition immunoassay.

A short description of series [17]: Half life in Sprague-Dawley rat at 2 mg/kg, iv. The series is classed as ADME, organism-based. Also on record: dose 2 mg/kg, route intravenous. To be noted: in vivo.
The target of series [18] is Platelet-derived growth factor receptor beta (Homo sapiens, UniProt P09619). Briefly: Inhibition of PDGFRbeta by fluorescence polarization competition immunoassay.
The target of series [19] is High affinity nerve growth factor receptor (Homo sapiens, UniProt P04629). Briefly: Inhibition of TrkA by fluorescence polarization competition immunoassay.
For series [20], the target named is T2, Receptor-type tyrosine-protein kinase FLT3 (Homo sapiens, UniProt P36888).
T2 sequence (P36888 whole entry): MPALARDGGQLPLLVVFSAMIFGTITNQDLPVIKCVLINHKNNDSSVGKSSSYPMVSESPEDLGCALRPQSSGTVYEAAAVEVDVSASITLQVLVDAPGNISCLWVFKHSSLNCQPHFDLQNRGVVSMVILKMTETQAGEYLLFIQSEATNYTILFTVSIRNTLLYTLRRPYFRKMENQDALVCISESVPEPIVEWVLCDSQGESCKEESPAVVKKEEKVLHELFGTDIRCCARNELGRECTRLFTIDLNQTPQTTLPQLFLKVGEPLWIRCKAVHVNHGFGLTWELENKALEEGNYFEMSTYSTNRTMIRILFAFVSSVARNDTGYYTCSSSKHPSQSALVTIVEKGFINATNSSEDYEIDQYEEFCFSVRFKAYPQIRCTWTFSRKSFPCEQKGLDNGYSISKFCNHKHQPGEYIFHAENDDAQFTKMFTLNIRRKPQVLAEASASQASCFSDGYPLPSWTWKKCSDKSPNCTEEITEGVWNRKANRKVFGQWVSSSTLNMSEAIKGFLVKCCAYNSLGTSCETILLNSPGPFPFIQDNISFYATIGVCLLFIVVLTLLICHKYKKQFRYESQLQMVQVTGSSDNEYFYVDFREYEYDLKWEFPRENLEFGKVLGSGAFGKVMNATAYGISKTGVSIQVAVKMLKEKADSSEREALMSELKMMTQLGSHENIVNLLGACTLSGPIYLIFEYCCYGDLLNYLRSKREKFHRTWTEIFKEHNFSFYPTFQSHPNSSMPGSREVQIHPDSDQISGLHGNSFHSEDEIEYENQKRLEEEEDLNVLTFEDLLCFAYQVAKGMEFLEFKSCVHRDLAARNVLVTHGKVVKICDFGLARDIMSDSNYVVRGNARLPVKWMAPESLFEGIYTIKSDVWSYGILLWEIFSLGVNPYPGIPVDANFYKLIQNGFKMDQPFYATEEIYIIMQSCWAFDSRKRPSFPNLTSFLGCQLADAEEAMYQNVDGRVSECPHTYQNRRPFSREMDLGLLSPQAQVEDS
Put plainly: Inhibition of FLT3 by fluorescence polarization competition immunoassay.

Chain of Platelet-derived growth factor receptor beta (P09619 whole entry): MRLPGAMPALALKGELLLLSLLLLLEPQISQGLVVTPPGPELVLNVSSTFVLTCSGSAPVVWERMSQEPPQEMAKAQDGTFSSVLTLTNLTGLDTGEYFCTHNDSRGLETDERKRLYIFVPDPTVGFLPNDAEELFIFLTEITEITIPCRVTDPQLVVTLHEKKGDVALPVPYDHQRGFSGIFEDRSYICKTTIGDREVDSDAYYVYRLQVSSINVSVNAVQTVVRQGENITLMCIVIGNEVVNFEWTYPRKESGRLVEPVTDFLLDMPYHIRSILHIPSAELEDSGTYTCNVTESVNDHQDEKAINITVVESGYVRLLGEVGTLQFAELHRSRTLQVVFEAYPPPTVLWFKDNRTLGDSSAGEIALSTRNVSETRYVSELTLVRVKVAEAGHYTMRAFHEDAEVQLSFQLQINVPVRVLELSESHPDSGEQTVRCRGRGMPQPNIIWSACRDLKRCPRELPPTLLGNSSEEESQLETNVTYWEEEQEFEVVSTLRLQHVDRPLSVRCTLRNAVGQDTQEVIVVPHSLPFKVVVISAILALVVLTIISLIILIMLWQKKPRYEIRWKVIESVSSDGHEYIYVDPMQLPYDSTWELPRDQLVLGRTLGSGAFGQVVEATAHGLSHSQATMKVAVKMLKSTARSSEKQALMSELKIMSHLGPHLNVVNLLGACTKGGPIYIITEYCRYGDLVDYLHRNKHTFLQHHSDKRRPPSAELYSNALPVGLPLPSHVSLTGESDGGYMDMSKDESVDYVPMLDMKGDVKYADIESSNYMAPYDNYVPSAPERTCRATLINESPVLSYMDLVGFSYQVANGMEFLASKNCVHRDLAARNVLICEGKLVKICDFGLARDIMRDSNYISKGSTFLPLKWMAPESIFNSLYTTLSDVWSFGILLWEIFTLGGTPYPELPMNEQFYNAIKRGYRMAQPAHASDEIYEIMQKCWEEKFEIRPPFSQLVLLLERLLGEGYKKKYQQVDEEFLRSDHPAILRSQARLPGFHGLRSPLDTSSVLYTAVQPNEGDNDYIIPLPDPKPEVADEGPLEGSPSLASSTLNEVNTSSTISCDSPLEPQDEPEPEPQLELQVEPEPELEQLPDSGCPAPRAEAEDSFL
Chain of Mast/stem cell growth factor receptor Kit (P10721 whole entry): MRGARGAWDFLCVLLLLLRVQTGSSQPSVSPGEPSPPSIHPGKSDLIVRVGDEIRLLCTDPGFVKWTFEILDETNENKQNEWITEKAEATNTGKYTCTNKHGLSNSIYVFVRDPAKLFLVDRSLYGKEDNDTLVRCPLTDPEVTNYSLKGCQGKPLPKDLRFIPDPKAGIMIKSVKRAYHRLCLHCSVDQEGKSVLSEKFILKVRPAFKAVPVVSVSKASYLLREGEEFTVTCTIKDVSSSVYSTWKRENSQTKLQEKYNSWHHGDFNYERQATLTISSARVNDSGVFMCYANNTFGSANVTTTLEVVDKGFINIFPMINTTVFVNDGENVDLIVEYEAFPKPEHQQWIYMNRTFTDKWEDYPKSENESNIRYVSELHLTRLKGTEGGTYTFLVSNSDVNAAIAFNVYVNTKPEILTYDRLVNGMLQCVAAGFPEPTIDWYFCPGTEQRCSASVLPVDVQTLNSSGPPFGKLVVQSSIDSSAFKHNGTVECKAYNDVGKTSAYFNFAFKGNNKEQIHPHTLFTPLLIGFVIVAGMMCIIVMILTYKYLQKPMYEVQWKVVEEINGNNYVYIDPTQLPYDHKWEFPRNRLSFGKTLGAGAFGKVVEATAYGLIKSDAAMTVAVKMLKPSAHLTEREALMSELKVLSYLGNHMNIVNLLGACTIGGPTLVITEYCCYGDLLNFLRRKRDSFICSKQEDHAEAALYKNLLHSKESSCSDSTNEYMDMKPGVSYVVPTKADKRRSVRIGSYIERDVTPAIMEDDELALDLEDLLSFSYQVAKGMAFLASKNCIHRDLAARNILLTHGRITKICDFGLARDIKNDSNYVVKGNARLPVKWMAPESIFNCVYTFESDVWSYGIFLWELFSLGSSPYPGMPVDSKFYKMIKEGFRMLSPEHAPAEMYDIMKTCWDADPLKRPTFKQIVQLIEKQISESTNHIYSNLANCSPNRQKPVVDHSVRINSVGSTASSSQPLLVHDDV
Chain of Proto-oncogene tyrosine-protein kinase Src (P12931 2-536 limits assumed): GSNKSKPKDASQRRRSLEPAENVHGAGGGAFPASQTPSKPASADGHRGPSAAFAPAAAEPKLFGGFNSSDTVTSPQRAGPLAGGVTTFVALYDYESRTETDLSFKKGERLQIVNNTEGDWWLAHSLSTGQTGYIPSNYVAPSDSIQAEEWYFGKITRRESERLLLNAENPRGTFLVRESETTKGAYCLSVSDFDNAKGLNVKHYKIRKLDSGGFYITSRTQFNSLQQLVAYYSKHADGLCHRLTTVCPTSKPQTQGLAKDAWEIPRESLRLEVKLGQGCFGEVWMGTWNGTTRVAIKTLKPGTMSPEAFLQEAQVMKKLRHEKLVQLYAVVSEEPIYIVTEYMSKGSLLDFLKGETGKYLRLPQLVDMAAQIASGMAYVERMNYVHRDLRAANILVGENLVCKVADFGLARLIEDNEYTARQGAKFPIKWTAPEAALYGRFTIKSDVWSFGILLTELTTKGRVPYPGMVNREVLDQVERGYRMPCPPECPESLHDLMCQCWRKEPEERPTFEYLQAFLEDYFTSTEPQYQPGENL
Chain of High affinity nerve growth factor receptor (P04629 whole entry): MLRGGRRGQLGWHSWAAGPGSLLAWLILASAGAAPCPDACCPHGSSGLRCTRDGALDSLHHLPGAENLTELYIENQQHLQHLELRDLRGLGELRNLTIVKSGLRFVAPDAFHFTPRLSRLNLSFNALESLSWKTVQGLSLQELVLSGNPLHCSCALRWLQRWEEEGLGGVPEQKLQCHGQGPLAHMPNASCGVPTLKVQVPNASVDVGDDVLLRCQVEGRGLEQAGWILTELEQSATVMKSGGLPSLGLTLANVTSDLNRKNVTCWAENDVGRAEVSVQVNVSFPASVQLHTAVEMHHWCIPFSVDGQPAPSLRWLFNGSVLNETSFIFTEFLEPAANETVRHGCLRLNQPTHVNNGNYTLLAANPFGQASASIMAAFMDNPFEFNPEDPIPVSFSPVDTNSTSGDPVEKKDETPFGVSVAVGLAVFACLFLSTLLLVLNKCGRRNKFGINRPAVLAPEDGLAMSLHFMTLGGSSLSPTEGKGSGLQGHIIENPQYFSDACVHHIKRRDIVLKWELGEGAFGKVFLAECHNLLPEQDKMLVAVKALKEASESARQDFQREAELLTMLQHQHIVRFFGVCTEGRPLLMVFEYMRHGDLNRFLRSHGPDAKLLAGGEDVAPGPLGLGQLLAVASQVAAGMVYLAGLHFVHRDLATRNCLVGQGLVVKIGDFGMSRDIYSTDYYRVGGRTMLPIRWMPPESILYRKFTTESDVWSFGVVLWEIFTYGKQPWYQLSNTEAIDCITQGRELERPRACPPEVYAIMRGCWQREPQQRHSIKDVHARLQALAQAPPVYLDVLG

`CONC(=O)c1cn(-c2ccc3c(c2)CCC3)c2nc(Nc3ccc(C4CCN(C)CC4)cc3)ncc2c1=O`: the half-life was 6.9 h in [1], 1.8 h in series [4] and 4.6 h in series [17]. Besides, the IC50 in series [2] is 1400 nM; in [12], 6 nM; in series [16], over 1000 nM; in series [18], 150 nM; in [19], 500 nM; in [20], 6 nM. Also, the concentration at 168 h in [3] stood at 55 nM. The remaining at 10 min was determined as 14% in [5] and 51% in series [11]. In addition, the outcome in series [6], in series [9] and in series [13] was Active. The Vd in [7] is 22.6 L/kg. Further, the inhibition in vivo at […] in series [8] is 7%. Moreover, the bioavailability in [10] was 16.7%. The Activity result in series [14] is on record as “Non-toxic”; in [15] it was 90%.
